The subject of one test is EDG1. The experiment in a line: In vivo activity versus counterpart of WO 2007/132307. To be noted: at 1 mg/kg. The source says:
The compounds of the invention show a better in vivo activity profile over their corresponding counterparts of WO 2007/132307, as evidenced below: […]

Another test addresses EDG-1 (Homo sapiens, UniProt P21453). The experiment in a line: [3H]dihydroS1P binding assay on HEK293-EDG-1 cell membranes. Further details: expressed in transfected cells; host or cells: HEK293. To be noted: transfected HEK293 cells; read-out: IC50, competition with [3H]dihydroS1P. From the text:
Furthermore, we settled a binding assay on HEK293-EDG-1 cells on these membranes using [3H]dihydroS1P. By Scatchard analysis we identified one binding site for [3H]dihydroS1P. Both S1P and dihydroS1P (an S1P biometabolite) compete with [3H]dihydroS1P on transfected HEK293 cells with an 1050 closed to 5± nM and a maximum binding capacity Bmax of […] of protein.

EDG-1, sequence (P21453 whole entry): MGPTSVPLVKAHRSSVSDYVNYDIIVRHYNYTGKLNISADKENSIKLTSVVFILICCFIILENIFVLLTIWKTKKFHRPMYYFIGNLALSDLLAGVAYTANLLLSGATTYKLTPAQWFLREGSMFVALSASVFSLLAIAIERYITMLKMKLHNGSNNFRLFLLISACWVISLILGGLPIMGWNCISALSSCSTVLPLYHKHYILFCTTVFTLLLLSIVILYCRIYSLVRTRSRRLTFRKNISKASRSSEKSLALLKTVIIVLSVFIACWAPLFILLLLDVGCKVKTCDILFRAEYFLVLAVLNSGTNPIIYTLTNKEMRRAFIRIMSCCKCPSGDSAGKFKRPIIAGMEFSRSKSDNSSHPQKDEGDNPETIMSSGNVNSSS

In the case of `CC(C)Cc1ccc(-c2nc(-c3ccc(CN[C@H]4C[C@@H](C(=O)O)C4)cc3)no2)cc1` [Comparative example 9, reference compound], the “ED50 (EDG1)” value in the test on EDG1 is reported as “Inactive at 1 mg/kg”. With `CCCCCCCCCCCCC/C=C/[C@@H](O)[C@@H](N)COP(=O)(O)O` [Example S1P, sphingosine-1-phosphate], the IC50 – broadly, the point on the concentration scale where inhibition reaches its midpoint – on EDG-1 was ~5 nM. On the same count and under the same terms, for `CCCCCCCCCCCCCCC[C@@H](O)[C@@H](N)COP(=O)(O)O` [dihydroS1P] the value was ~5 nM. In the test on EDG1, `CC(C)Cc1ccc(-c2nc(-c3ccc(CN4CCC(C)(C(=O)O)CC4)cc3)no2)cc1` [drawing 239] came in with a lymphopenia of 40% at 1 mg/kg.
